Measured values as given in US20200108043A1, “COMPOUNDS AND COMPOSITIONS FOR EXTENDING LIFESPAN OF A SUBJECT” (YALE UNIVERSITY, priority 2017, published 2020).
“Also recorded” adds a separate entry of the source. Residues, ends and D or L forms follow the SMILES beside them. *: point of attachment. Cbz = O=C(OCc1ccccc1)*

How the values were obtained:
[1] = test system: Saccharomyces cerevisiae; assay: High-Life (High throughput replicative Lifespan measurement) flow cytometry assay in MEP yeast; type: cell-based; settings: 10 μM, 24 hours in culture, 3-4 replicate wells, repeat of screen hits
Protocol: Cells were labeled with NHS-fluorescein as described above, then diluted to 20 cells/μL in media. 80 μL/well was aliquoted to 384-well plates, which were covered with a breathable membrane and placed on a shaker platform in a humidified incubator. After 3 hours, the plates were removed from the incubator and each well was treated with 20 μL pre-warmed, 30° C. 5 μM β-estradiol in media. In the case of ibuprofen or compound-treated wells, the compound was diluted in this volume at a 5× concentration to achieve a final concentration of 10 μM, or 100 μM for ibuprofen. The plates were then returned to the incubator. At indicated times, one plate was removed from the incubator and placed on an autosampler cooled to 8° C. attached to a Stratedigm flow cytometer. The cytometer was set to automatically add and mix 20 μL of aqueous solution containing 60 μg/mL CF405M-WGA (Biotium 29028) and propidium iodide (Sigma P4864) prior to acquiring 80 μL of sample for each well.
In order to test the lifespan of model organisms on both a large-scale and with quick turn-around, a massively multiplexed method was developed to measure replicative lifespan in the short-lived model organisms Saccharomyces cerevisiae. The protocol uses green-fluorescent labeling to identify progenitor cells, red-fluorescent labeling to differentiate non-viable cells, and blue-fluorescent labeling of bud scars to determine replicative age (FIG. 1). Each parameter is measured using a flow cytometer.
To achieve high throughput, the measurement system was automated, and the assay was performed in 384-well plates. The assay was performed using an autosampler-equipped flow cytometer, in a volume of 100 μL. Growth of even a single cell and its progeny in such a small volume will result in nutrient starvation before the natural replicative lifespan is exhausted; therefore to circumvent this issue, High-Life experiments were performed in the background of the Mother Enrichment Program (MEP) (Lindstrom and Gottschling, Genetics. 2009 October; 183(2):413-22). MEP strains express a CRE recombinase fused to an estrogen-binding domain for only a short time after birth. In the presence of β-estradiol, the recombinase translocates to the nucleus where it can excise two essential genes that have been modified to contain the exogenous LoxP sequence. Addition of β-estradiol to the media thus renders newborn daughters inviable without affecting existing mother cells, preventing exponential growth of the cell population and nutrient depletion (FIG. 2A).
The High-Life method was then tested to determine if it was suitable to screening for compounds that extend replicative lifespan. […] The effect of these compounds on High-Life readings was assayed after 24 hours in culture at 10 μM concentration. As a positive control, ibuprofen was used.

[2] = test system: S. cerevisiae; type: cell-based
Protocol: To obtain the single-cell level data for the age and generation-durations of replicatively aging mother cells, data reported in Liu, P., et al., Cell Rep. 634-644 (2015) was re-analyzed. The data was collected in the same media condition (CSM 2% glucose) as reported elsewhere herein. Cells were grown for ˜24 hours in CSM 2% glucose prior to loading to the microfluidic device. Once cells were loaded, media was swapped to provide CSM 2% glucose control media (untreated), media containing DMSO as a vehicle control (American Bio AB00435), media containing 10 μM terreic acid (Sigma SML0480), media containing 10 μM mycophenolic acid (Sigma M5255), or media containing another compound at the indicated concentration. An automated microscope was used to track […], and replicative lifespan was later determined by counting the number of daughters produced before death. In the case of compound validation, only newborn cells were included in the lifespan experiment. To compare the replicative lifespan of labeled and unlabeled cells, only cells that were present within the traps at the start of the experiment were included. For these experiments, cells were loaded to the microfluidic device at an increased rate of 100 μL/min to increase the number of trapped mother cells. Green fluorescent images were also taken at the start of the experiment to confirm that the cells were visibly labeled.
Differences in lifespan characteristics were assessed through Log-Rank test using MATLAB with a cut-off value of P=0.05. The script for Log-Rank test was downloaded from MATLAB. Differences in proteasome activity were assessed using the unpaired, two-tailed, parametric t-test function of the GraphPad Prism software.
The Longevity Placement Test (LPT) was designed as a mutually exclusive, collectively exhaustive test to determine the relationship of a longevity intervention to a known genetic regulator of lifespan. For a given intervention that extends lifespan, any of three possible relationships may exist relative to a known genetic regulator of lifespan. (1) The intervention may act to extend lifespan independently from the known regulator. (2) The […] may act downstream from the known regulator, converging on a single component of the known regulator's lifespan pathway. (3) The intervention may act upstream from or upon the known regulator, ultimately modulating lifespan through the genetic regulator.
In Step 1 of the LPT, the longevity intervention is applied to a strain in which a genetic regulator of lifespan is deleted. In the event that lifespan extension from the longevity intervention is observed in this background, only possibilities (1) and (2) above remain valid (FIG. 7B). If no lifespan extension is observed, then possibilities (2) and (3) remain valid. Possibility (2) cannot be ruled out in this step, since non-saturating action by the genetic regulator could leave room for lifespan extension by the longevity intervention, while saturating action would preclude it.
In Step 2 of the LPT, an epistatic agent, which prevents lifespan extension from the longevity agent, is applied to a strain in which some upstream member of the genetic regulator's lifespan pathway has been modified to extend lifespan. This step differentiates possibility (2) from the remaining possibility after Step 1. In the event that lifespan extension from the genetic regulator's pathway is suppressed by the epistatic agent, this determines that possibility (2) is correct. In the event that no epistasis is observed, the remaining possibility, (1) or (3), is correct (FIG. 7C).

[3] = test system: C. elegans; assay: Roundworm (C. elegans) lifespan extension; type: in vivo, Caenorhabditis elegans; settings: 10 μM in NGM plates, treated for duration of lifespan, vs control
Protocol: Synchronized animals were obtained using the egg-laying method, allowing young […] eggs for 4 hours on bacteria-seeded plates. For each treatment group, 120 synchronized day-1 adults were used. All experiments were carried out at 20° C. Treatment groups were blinded. Nematode growth media (NGM) plates were made for each treatment group: Negative control (DMSO), Mycophenolic Acid (10 μM in DMSO), and Terreic Acid (10 μM in DMSO). The compounds were added to NGM media before pouring the plates. The plates were then dried overnight before moving them to 4° C. to prevent degradation of the compounds. Plates were seeded with 100 μL of 10× concentrated OP50 E. coli, and dried overnight at room temperature. Plates were UV treated with a UVP CL-1000 Ultraviolet Crosslinker, run twice on the energy setting ‘9999’ for about 5 minutes each run. Worms were transferred to new plates every 2-4 days. Viability was scored every day, with death determined by lack of response to a platinum wire. Missing worms, or those that died due to internal hatching were censored.

[4] = target: T1, proteasome (Saccharomyces cerevisiae, UniProt P30656); assay: Proteasome assay with fluorogenic substrate Suc-LLVY-AMC on yeast protein extracts; type: biochemical
T1 construct: with 50 μg of total protein in 200 μL of lysis buffer; endogenous in cells; host or cells: S. cerevisiae BY4741 wild-type or ΔUBR2 cells, glass-bead lysate (total protein extract)
Protocol: For protein extraction, 50 mL of cells were grown for 18 hours to an OD600 of approximately 0.8, then transferred to a 50 mL conical tube and centrifuged at 4255×g for 5 minutes at room temperature. The supernatant was discarded, and the cells were re-suspended in 150 μL of cold lysis buffer (50 mM Tris-HCl, pH 7.5, 0.5 mM EDTA, 5 mM MgCl2, with complete ULTRA mini protease inhibitor tablets, EDTA free) and transferred to a 1.5 mL tube. A ¼ volume of 500-750 μm glass beads (Acros Organics 397641000) was added to each tube. For 10 rounds, the tubes were chilled in ice water for 1 minute, then vortexed at maximum speed for 30 seconds to physically rupture the cells, and returned to the ice water. Samples were then spun for 3 minutes at 2500×g and 4° C., and the supernatant was transferred to a fresh tube. The solution was further clarified by centrifugation at 8000×g for 10 minutes at 4° C., and the supernatant was transferred to a fresh tube. Protein concentration was measured using a Nanodrop measuring the absorbance of the sample at 280 nm.
The proteasome assay used was described in Kruegel, et al. PLoS Genet. 7, (2011). The assay was performed in a 96-well clear-bottom plate (Costar 3603) with 50 μg of total protein in 200 μL of lysis buffer. The fluorogenic proteasome substrate Suc-LLVY-AMC (Bachem 1-1395) was added to a final concentration of 100 μM. Fluorescence intensity with an excitation wavelength of 380 nm and an emission wavelength of 460 nm was recorded at 5-minute intervals using a Neo2 plate reader (BioTek) set to mix constantly and maintain 30° C. Negative control reactions were performed in the presence of 50 μM MG132 (Sigma 474787), a proteasome inhibitor.

CC1=C(O)C(=O)[C@@H]2O[C@@H]2C1=O [terreic acid] was tested, and the “average High-Life readings (progenitor fraction viable vs CF405M intensity) relative to controls” value [1] was “at least slightly above controls”, the “extension of mean RLS” value ([2]; 10 μM compound, wild-type haploid cells, Replicator device) was 15% and the “lifespan of C. elegans” value [3] was “measurable extension of lifespan; also recorded: statistically significant lifespan extension”.

CC(C)C[C@@H](C=O)NC(=O)[C@H](CC(C)C)NC(=O)[C@H](CC(C)C)NC(=O)OCc1ccccc1 [MG-132] (Cbz-Leu-Leu-Leu-aldehyde) was tested, and the “rate of fluorescence increase in proteasome assay (negative control)” value ([4]; 50 μM MG132) was “low rate of fluorescence increase”.

With Nc1nc2nc[nH]c2c(=O)[nH]1 [guanine] the “reversal of lifespan extension conferred by SIR2 overexpression (LPT step 2)” value ([2]; SIR2 overexpression, guanine as epistatic agent) was “did not reverse the lifespan extension”, the “suppression of lifespan extension in ΔHXK2 strain (LPT step 2)” value ([2]; ΔHXK2 strain, guanine as epistatic agent) was “did not suppress lifespan extension” and the “suppression of lifespan extension in ΔTOR1 strain (LPT step 2)” value ([2]; ΔTOR1 strain, guanine as epistatic agent) was “did not suppress lifespan extension”. For the same compound, the “suppression of lifespan extension from UBR2 deletion (LPT step 2)” value ([2]; ΔUBR2 strain, guanine supplementation) was “partially suppressed lifespan extension” and the “proteasome activity in ΔUBR2 cells” value ([4]; ΔUBR2 cells, presence vs absence of guanine) was “did not alter proteasome activity”.
